Assay results published in article PMC6839509, “Fluorescent probes towards selective cathepsin B detection and visualization in cancer cells and patient samples” (Chemical Science, 2019).
Values joined by “and” are separate entries in the source; they are usually repeats but may differ in a detail not shown here. Equal entries are not always repeated. Square brackets hold non-standard residues; d marks the D form. * marks the point of attachment. Phe(4-Cl) = N[C@@H](Cc1ccc(Cl)cc1)C(=O)O; ACC = NC(=O)Cc1cc(=O)oc2cc(N*)ccc12; hTyr = N[C@@H](CCc1ccc(O)cc1)C(=O)O; hPhe = N[C@@H](CCc1ccccc1)C(=O)O; Cha = N[C@@H](CC1CCCCC1)C(=O)O; AMC = Cc1cc(=O)oc2cc(N*)ccc12; hLeu = CC(C)CC[C@H](N)C(=O)O; hSer = N[C@@H](CCO)C(=O)O; Nle = CCCC[C@H](N)C(=O)O; Nva = CCC[C@H](N)C(=O)O; Cbz = O=C(OCc1ccccc1)*; OBn = c1ccc(CO*)cc1; Bn = c1ccc(C*)cc1

Legend:
[1] = biological target: T1, cathepsin B in human cancer cell lines (Homo sapiens, UniProt P07858); assay: Detection of active cathepsin B in cancer cells using Cy5-labeled MP-CB-2 probe (SDS-PAGE, Western blot); format: cell-based; conditions: A-431 cells; E-64d 25 μM; 1 μM MP-CB-2
T1 construct: we were able to label both cathepsin B active forms (single chain 29 kDa, and light chain 6 kDa); endogenous in cells; host or cells: human cancer cell lines (A-431, HCT-116, OVCAR-5, SK-OV-3, MDA-MB-231, U2-OS, PC-3, HeLa and others)
Experimental: 50 000 cells from fourteen adherent cancer cell lines were seeded into 12-well plates and allowed to attach overnight. In parallel, 50 000 cells from four non-adherent cancer cell lines were placed into 12-well plates and cultured overnight. The next day, MP-CB-2 ABP was added to the cells (1 μM final concentration) and incubated for various times (1, 4, 8, 24 hours). Next, cells were harvested, centrifuged at 500 × g for 5 min, cell pellets were washed with 1× DPBS, cells were centrifuged again at 500 × g for 5 min, and the supernatant was discarded. Finally, cell pellets were solubilized in 100 μL of 1× SDS/DTT and boiled for 5 min, cooled to room temperature and sonicated. Each sample (30 μL) was then subjected to SDS-PAGE analysis (4–12% Bis–Tris Plus 10-well gels, 200 V, 30 min), followed by protein transfer onto the membrane (0.2 μm nitrocellulose membrane, 10 V, 60 min). Ponceau S staining verified equal loading and transfer of proteins. Membranes were blocked in 2.5% BSA in TBS-T for 1 hour at room temperature. […] The images were then analyzed with the Image Studio software.
50 000 of selected cancer cells (A-431, HCT-116, OVCAR-5, SK-OV-3, MDA-MB-231, U2-OS, and PC-3) were seeded into 12-well plates and allowed to attach overnight. […] All images were analyzed with Image Studio software.

[2] = biological target: T2, human recombinant cathepsin B (Homo sapiens, UniProt P07858); assay: Substrate hydrolysis kinetics (kcat, KM, kcat/KM) of ACC-labeled substrates; format: biochemical; conditions: for kcat/KM Cat B: cathepsin B 0.3–0.5 nM, 100 mM sodium acetate, 100 mM NaCl, 10 mM DTT, 1 mM EDTA, Michaelis–Menten, average of at least triplicate; for kcat/KM Cat B / kcat Cat B / Km: pH 5.5, 37 °C, S.D. below 15%; for kcat Cat B / Km: four independent experiments; for Km: read-out: KM Cat B
T2 construct: made in house
Experimental: (§1) All kinetic experiments were performed using a CLARIOStar (BMG LABTECH) plate reader operating in fluorescence kinetic mode using 96-well plates (Corning®, Costar®). ACC-labeled fluorescent substrates were screened at 355 nm (excitation) and 460 nm (emission) wavelengths (gain 650). The cathepsin assay buffer was composed of 100 mM sodium acetate, 100 mM sodium chloride, 10 mM DTT, 1 mM EDTA, pH 5.5. All kinetic studies were performed at 37 °C.
(§2) The kinetic parameters for all ACC-labeled substrates were determined using Michaelis–Menten kinetic according to the protocol described by Poreba et al.[41] […] All experiments were performed at least in triplicate and the results are presented as average values (S.D. for all tested substrates was below 15%).

[3] = biological target: T3, human recombinant cathepsin V (Homo sapiens, UniProt O60911); assay: as above; format: biochemical; conditions: pH 5.5, 37 °C, S.D. below 15%; for kcat/KM Cat V: cathepsin V 200 nM, Michaelis–Menten, average of at least triplicate; for kcat Cat V / Km: four independent experiments; for Km: read-out: KM Cat V
T3 construct: with a 100 nM final concentration of each active cathepsin for 30 min; made in house
Experimental: as §1, §2

[4] = biological target: T4, human recombinant cathepsin L (Homo sapiens, UniProt P07711); assay: as above; format: biochemical; conditions: pH 5.5, 37 °C, S.D. below 15%; for kcat/KM Cat L: cathepsin L 250 nM, Michaelis–Menten, average of at least triplicate; for kcat Cat L / Km: four independent experiments; for Km: read-out: KM Cat L
T4 construct: with a 100 nM final concentration of each active cathepsin for 30 min; made in house
Experimental: as §1, §2

[5] = biological target: T5, human recombinant cathepsin S (Homo sapiens, UniProt P25774); assay: as above; format: biochemical; conditions: pH 5.5, 37 °C, S.D. below 15%; for kcat/KM Cat S: cathepsin S 150 nM, Michaelis–Menten, average of at least triplicate; for kcat Cat S / Km: four independent experiments; for Km: read-out: KM Cat S
T5 construct: with a 100 nM final concentration of each active cathepsin for 30 min; made in house
Experimental: as §1, §2

[6] = biological target: T6, human recombinant cathepsin K (Homo sapiens, UniProt P43235); assay: as above; format: biochemical; conditions: pH 5.5, 37 °C, S.D. below 15%; for kcat/KM Cat K: cathepsin K 320 nM, Michaelis–Menten, average of at least triplicate; for kcat Cat K / Km: four independent experiments; for Km: read-out: KM Cat K
T6 construct: with a 100 nM final concentration of each active cathepsin for 30 min; made in house
T6 sequence (P43235 115-329): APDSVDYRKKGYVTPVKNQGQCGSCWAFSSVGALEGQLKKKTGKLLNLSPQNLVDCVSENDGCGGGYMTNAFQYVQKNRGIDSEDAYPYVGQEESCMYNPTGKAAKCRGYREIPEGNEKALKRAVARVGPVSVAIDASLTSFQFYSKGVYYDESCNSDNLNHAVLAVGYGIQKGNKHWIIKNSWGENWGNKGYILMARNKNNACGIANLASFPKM
Experimental: as §1, §2

T5 sequence (P25774 115-331): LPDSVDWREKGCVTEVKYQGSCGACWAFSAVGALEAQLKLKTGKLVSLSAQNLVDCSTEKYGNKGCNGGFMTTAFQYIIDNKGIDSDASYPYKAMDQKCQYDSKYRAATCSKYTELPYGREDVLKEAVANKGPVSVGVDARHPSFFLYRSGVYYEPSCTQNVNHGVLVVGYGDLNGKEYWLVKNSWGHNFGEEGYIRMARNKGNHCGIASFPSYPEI
T4 sequence (P07711 114-333): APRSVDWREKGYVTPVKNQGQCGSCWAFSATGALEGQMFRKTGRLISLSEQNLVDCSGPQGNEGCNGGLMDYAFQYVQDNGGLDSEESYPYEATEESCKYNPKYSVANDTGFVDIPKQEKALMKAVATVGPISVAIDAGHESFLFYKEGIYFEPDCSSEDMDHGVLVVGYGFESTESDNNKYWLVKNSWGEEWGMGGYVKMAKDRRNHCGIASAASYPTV
T3 sequence (O60911 114-334): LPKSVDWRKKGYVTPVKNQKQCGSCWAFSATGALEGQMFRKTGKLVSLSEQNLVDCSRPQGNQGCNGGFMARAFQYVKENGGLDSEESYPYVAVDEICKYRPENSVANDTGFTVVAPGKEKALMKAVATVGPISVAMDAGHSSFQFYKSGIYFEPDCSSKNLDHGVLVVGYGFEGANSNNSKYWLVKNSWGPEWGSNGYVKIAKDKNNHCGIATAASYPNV

Compound | kcat/KM Cat B [2] | kcat/KM Cat V [3] | kcat/KM Cat L [4] | kcat/KM Cat S [5] | kcat/KM Cat K [6] | also measured
CCOC(=O)[C@H]1O[C@@H]1C(=O)N[C@@H](CC(C)C)C(=O)NCCC(C)C [E-64d] | – | – | – | – | – | prevention of cathepsin B labeling by MP-CB-2 on pre-incubation with inhibitor [1]: completely prevented
Ac-[Cha]LE(OBn)R-{ACC} (SMILES CC(=O)N[C@@H](CC1CCCCC1)C(=O)N[C@@H](CC(C)C)C(=O)N[C@@H](CCC(=O)OCc1ccccc1)C(=O)N[C@@H](CCCNC(=N)N)C(=O)Nc1ccc2c(CC(N)=O)cc(=O)oc2c1) | 3,100,000 M^-1s^-1 | 949 M⁻¹ s⁻¹ | 744 M⁻¹ s⁻¹ | 40 M⁻¹ s⁻¹ | 14 M⁻¹ s⁻¹ | selectivity for cathepsin B in comparison with cathepsin S ([2]; from kcat/KM): ~60 000 fold; kcat Cat B [2]: 344 s⁻¹; Km [2]: 115 µM; kcat Cat V [3]: 0.034 s⁻¹; Km [3]: 35.1 µM; kcat Cat L [4]: 0.062 s⁻¹; Km [4]: 83.5 µM; kcat Cat S [5]: < 0.020 s⁻¹; Km [5]: > 500 µM; kcat Cat K [6]: < 0.007 s⁻¹; Km [6]: > 500 µM
Ac-[Cha]L[hSer](Bn)R-{ACC} (SMILES CC(=O)N[C@@H](CC1CCCCC1)C(=O)N[C@@H](CC(C)C)C(=O)N[C@@H](CCOCc1ccccc1)C(=O)N[C@@H](CCCNC(=N)N)C(=O)Nc1ccc2c(CC(N)=O)cc(=O)oc2c1) [ACC-labeled tetrapeptide substrate] | 4,300,000 M^-1s^-1 | 518 M⁻¹ s⁻¹ | 1,040 M^-1s^-1 | 44 M⁻¹ s⁻¹ | 14 M⁻¹ s⁻¹ | kcat Cat B [2]: 390 s⁻¹; Km [2]: 90.9 µM; kcat Cat V [3]: 0.055 s⁻¹; Km [3]: 109 µM; kcat Cat L [4]: 0.109 s⁻¹; Km [4]: 105 µM; kcat Cat S [5]: < 0.022 s⁻¹; Km [5]: > 500 µM; kcat Cat K [6]: < 0.007 s⁻¹; Km [6]: > 500 µM
Ac-[Nva][Cha]E(OBn)R-{ACC} (SMILES CCC[C@H](NC(C)=O)C(=O)N[C@@H](CC1CCCCC1)C(=O)N[C@@H](CCC(=O)OCc1ccccc1)C(=O)N[C@@H](CCCNC(=N)N)C(=O)Nc1ccc2c(CC(N)=O)cc(=O)oc2c1) [ACC-labeled tetrapeptide substrate] | 4,090,000 M^-1s^-1 | 1,420 M^-1s^-1 | 1,140 M^-1s^-1 | 37 M⁻¹ s⁻¹ | 30 M⁻¹ s⁻¹ | –
Ac-[Phe(4-Cl)]L[hSer](Bn)R-{ACC} (SMILES CC(=O)N[C@@H](Cc1ccc(Cl)cc1)C(=O)N[C@@H](CC(C)C)C(=O)N[C@@H](CCOCc1ccccc1)C(=O)N[C@@H](CCCNC(=N)N)C(=O)Nc1ccc2c(CC(N)=O)cc(=O)oc2c1) [ACC-labeled tetrapeptide substrate] | 3,780,000 M^-1s^-1 | 570 M⁻¹ s⁻¹ | 1,540 M^-1s^-1 | 50 M⁻¹ s⁻¹ | 12 M⁻¹ s⁻¹ | –
Ac-[hLeu][Nle]E(OBn)R-{ACC} (SMILES CCCC[C@H](NC(=O)[C@H](CCC(C)C)NC(C)=O)C(=O)N[C@@H](CCC(=O)OCc1ccccc1)C(=O)N[C@@H](CCCNC(=N)N)C(=O)Nc1ccc2c(CC(N)=O)cc(=O)oc2c1) [ACC-labeled tetrapeptide substrate] | 3,450,000 M^-1s^-1 | 1,180 M^-1s^-1 | 1,090 M^-1s^-1 | 96 M⁻¹ s⁻¹ | 17 M⁻¹ s⁻¹ | –
Ac-[hLeu][Nle][hSer](Bn)R-{ACC} (SMILES CCCC[C@H](NC(=O)[C@H](CCC(C)C)NC(C)=O)C(=O)N[C@@H](CCOCc1ccccc1)C(=O)N[C@@H](CCCNC(=N)N)C(=O)Nc1ccc2c(CC(N)=O)cc(=O)oc2c1) [ACC-labeled tetrapeptide substrate] | – | – | – | 65 M⁻¹ s⁻¹ and 39 M⁻¹ s⁻¹ | 16 M⁻¹ s⁻¹ and 19 M⁻¹ s⁻¹ | –
Ac-[hPhe]LE(OBn)R-{ACC} (SMILES CC(=O)N[C@@H](CCc1ccccc1)C(=O)N[C@@H](CC(C)C)C(=O)N[C@@H](CCC(=O)OCc1ccccc1)C(=O)N[C@@H](CCCNC(=N)N)C(=O)Nc1ccc2c(CC(N)=O)cc(=O)oc2c1) [ACC-labeled tetrapeptide substrate] | 2,100,000 M^-1s^-1 | 829 M⁻¹ s⁻¹ | 726 M⁻¹ s⁻¹ | 37 M⁻¹ s⁻¹ | 12 M⁻¹ s⁻¹ | –
Ac-[hTyr]LE(OBn)R-{ACC} (SMILES CC(=O)N[C@@H](CCc1ccc(O)cc1)C(=O)N[C@@H](CC(C)C)C(=O)N[C@@H](CCC(=O)OCc1ccccc1)C(=O)N[C@@H](CCCNC(=N)N)C(=O)Nc1ccc2c(CC(N)=O)cc(=O)oc2c1) [ACC-labeled tetrapeptide substrate] | 2,760,000 M^-1s^-1 | 692 M⁻¹ s⁻¹ | 1,170 M^-1s^-1 | 41 M⁻¹ s⁻¹ | 14 M⁻¹ s⁻¹ | –
Ac-hLeu-Nle-Glu(Chx)-Arg-ACC [ACC-labeled tetrapeptide substrate] | 2,600,000 M^-1s^-1 | 1,310 M^-1s^-1 | 769 M⁻¹ s⁻¹ | 25 M⁻¹ s⁻¹ | 11 M⁻¹ s⁻¹ | –
Cbz-Arg-Arg-{AMC} [reference compound] | – | – | – | – | – | selectivity for cathepsin B over cathepsin L ([2]; from kcat/KM): 17 fold
